Series [1] relates to adult Nf1+/- mice DRG neurons. The series can be described thus: K+-stimulated release of iCGRP from Nf1+/- sensory neurons (RIA). It counts as cell-based, mouse.
In series [2] the target is interaction between CaV2.2 and CRMP2 (Rattus norvegicus, UniProt P47942). The series can be described thus: Immunoprecipitation with CaV2.2 antibody from rat dorsal root ganglia lysate, CRMP2 immunoblot. It counts as biochemical. The conditions noted are these: 10 μM peptide added for 30 min; rat DRG. A general note: In western blotting, separated proteins are transferred to a membrane and probed.

The test system of a further series is adult rat DRG neurons. The series can be described thus: Fura-2 calcium imaging of K+-stimulated Ca2+ influx. It is filed as cell-based.
The conditions of series [3]: cell permeability; Wender et al.; cited from earlier work.
Another series has as its system rats with TNI. To be noted: 10 mg/kg i.p.; evaluated at 1 h and 4 h.
For another series, the system named is naïve rodents. The conditions noted are these: in vivo, ip.
Another series concerns adult mouse DRG neurons. The series can be described thus: K+-stimulated release of iCGRP from isolated sensory neurons (RIA). To be noted: 10 μM peptide; for basal or resting release of iCGRP: 3.5 mM KCl. It is filed as cell-based. How it is done: EXAMPLE. Primary dorsal root ganglion (DRG) neuronal cultures. Isolation of sensory neurons from 1 to 2 month old wildtype C57BL/6J and Nf1^+/− C57BL/6J littermates (34) was performed exactly as described previously (11,35,36) while DRGs from adult rats were prepared as per Brittain and colleagues (11). All animals were housed, bred, and had free access to food and water in the Indiana University Laboratory Animal Research Center and used in procedures approved by the Animal Use and Care Committee of the Indiana University School of Medicine. All animals were genotyped prior to use in experiments.
EXAMPLE. Stimulated-release of iCGRP. Measurement of stimulus-evoked release and content of immunoreactive CGRP (iCGRP) from isolated sensory neurons was accomplished as previously published (11,33,35). After 5-7 days in culture, media was removed and the basal or resting release of iCGRP was measured from cells incubated for 10 minutes in HEPES buffer consisting of (in mM): 25 HEPES, 135 NaCl, 3.5 KCl, 2.5 CaCl2, 1 MgCl2, 3.3 dextrose, and 0.1% (w/v) bovine serum albumin, pH 7.4, and maintained at 37° C. […] The amount of iCGRP released in each incubation was measured by a radioimmunoas say (RIA). The minimum amount of iCGRP detected by the RIA is 5 fmol with a 95% confidence interval (37). After the release protocol, the remaining peptide content in each well was determined by exposing the cells to 2 N acetic acid for 10 minutes. Aliquots of acid solution were diluted in HEPES and iCGRP levels were determined by RIA. The release of iCGRP during the 10 min incubation period is expressed as percent of the total content. […]
EXAMPLE. […] The KCl-stimulated release of CGRP was measured from sensory neurons exposed to TAT-control, TAT-L1 or TAT-Ct-dis peptides, at 10 μM (a concentration at which Ca^2+ influx was largely unaffected by both peptides), included in the 10 minutes prior to and throughout the high K^+ exposures (total peptide exposure of 30 min). […]

The next series deals with ddC-injected rats. The series can be described thus: ddC model of peripheral neuropathy, von Frey paw withdrawal threshold. It is filed as in vivo, rat.
The test system of series [4] is R-type (CaV2.3) Ca2+ currents. Put plainly: R-type Ca2+ current recording in sensory neurons. It counts as cell-based.
Series [5] concerns lumbar 4-5 DRG neurons from d4T-treated rats. Put plainly: Current clamp recording of action potential firing. It is filed as cell-based, rat. The conditions noted are these: 10 μM. How it is done:
EXAMPLE. […] Current clamp recordings were performed on small-to-medium (>30 μm->40 μm) diameter lumbar 4-5 DRG neurons from d4T-treated rats. Firing of 4-6 action potentials (APs) was elicited by a 1 second depolarizing current injection (ranging from 0.1 to 0.4 nA depending on the cell) every 30 seconds.

Another series deals with d4T-treated rats. Put plainly: d4T-induced mechanical hypersensitivity, paw withdrawal threshold. To be noted: administered at 10 mg.

“And” between values parts separate entries of the source, which are not always exact repeats. Identical values can stand only once. Like-named read-outs stand apart in the source and are kept apart here. Ends that are not written are not given here.

Method for rats with TNI: Antinociceptive efficacy following acute and continuous systemic infusion. Test animals with tibial nerve injury (TNI)-induced neuropathic pain behavior (over 6 months) were administered to a single intraperitoneal injection or continual constant-rate infusion of polyarginine-conjugated CBD3A6K (ST2-106). Female Sprague-Dawley rats with TNI were administered a single injection of saline or 20 mg/kg of ST2-106.
Female Sprague-Dawley rats with TNI were infused with saline or ST2-106 over a 24 to 72 hour period using subcutaneously implanted Alzet® osmotic minipumps. […] Rats were used at 28 days after tibial nerve injury.
Paw-withdrawal thresholds (PWT in millinewtons, mN) were measured in naïve rats and rats subjected to spared nerve injury (i.e. tibial nerve ligation, TNI).
Paw-withdrawal thresholds (PWT in millinewtons, mN) were also measured in naïve rats and rats subjected to TNI when treated with compounds described herein or vehicle for extended periods.

On to “ARSRLAELRGVPRGL (listed as Homo sapiens) [CBD3, short peptide derived from CRMP2]”, for which the “less iCGRP release compared to TAT-control” value in series [1] (Nf1+/- neurons, 50 mM KCl, 10 μM peptide) is about 78%.

Take NSSFPSIHCSSWSEE [Ct-dis]: the “amount of CRMP2 captured with CaV2.2 antibody” value in series [2] is given as “reduced the amount of CRMP2 that could be captured”. Further, in the series with adult rat DRG neurons (30 μM), the “peptide-mediated inhibition of [Ca2+]c influx, Ct-dis versus L1” value is “much more pronounced”. For the same substance, in the series with adult rat DRG neurons (20 min incubation, 3 μM and 30 μM (FIG. 1), 46.5 mM KCl), the “K+-stimulated [Ca2+]c influx” value is listed as “concentration-dependent decrease”.

In the case of “R9: oligoarginine (SEQ ID NO: 1) (RRRRRRRRR)”, the “greater penetration than TAT” value in series [3] was 100 fold.

In the case of RRRRRRRRRARSRLAELRGVPRGL [ST2-104], the “nerve-injury induced nociception (PWT)” value in the series with rats with TNI is recorded as “reverses nerve-injury induced nociception”.

RRRRRRRRRARSRLKELRGVPRGL [ST2-106]: in the series on naïve rodents, the “PWT in naïve animals” value is reported as “unaffected”.

“YGRKKRRQRRR-NSSFPSIHCSSSWSEE [TAT-Ct-dis]”: the “less iCGRP release compared to TAT-control” value (in the series with adult mouse DRG neurons (50 mM KCl); in [1]) was about 70% each time. Also, the “peptide-induced reversal of hypersensitivity” value in the series with ddC-injected rats (4 mg/kg i.p., two hours after injection) is recorded as “diminished to pre-peptide levels”. Besides, in the series with ddC-injected rats (~4 mg/kg i.p., 1 h after injection, seven days after ddC), the “reversal of tactile hypersensitivity (PWT)” value is “Almost complete reversal of tactile hypersensitivity”.

As to “YGRKKRRQRRR-WEAKEMLYFEALVIE (YGRKKRRQRRRWEAKEMLYFEALVIE) [TAT-control, reference compound]”, in the series with adult mouse DRG neurons, the “basal or resting release of iCGRP” value is 1.58±0.17 % total peptide content/10 min and 0.92±0.09 % total peptide content/10 min. For the same substance, in series [1], the “increase in iCGRP release over basal” value was in the range of 8 to 10 fold.

Turning to “YGRKKRRQRRR-YLEWIFKAEEVMLAE (YGRKKRRQRRRYLEWIFKAEEVMLAE) [TAT-L1]”, in the series with adult mouse DRG neurons, the “basal or resting release of iCGRP” value is reported as 1.04±0.09 % total peptide content/10 min.

Take YGRKKRRQRRRARSRLAELLGVPRGL [ST1-106]: in series [4], the “R-type calcium current density” value is “showed a significant decrease over control”. The “number of elicited action potentials” value in series [5] is “reduces the number of elicited action potentials”.

For the substance YGRKKRRQRRRARSRLAELRGVPRGL [ST1-104], the “effect on healthy animals (pre-d4T)” value in the series with d4T-treated rats is given as “Neither TAT-CBD3 nor TAT-CBD3A6K administered at 10 mg showed an effect”.

Regarding YGRKKRRQRRRARSRLKELRGVPRGL [ST1-105], the “effect on healthy animals (pre-d4T)” value in the series with d4T-treated rats is recorded as “Neither TAT-CBD3 nor TAT-CBD3A6K administered at 10 mg showed an effect”.

The values are drawn from US9782491B2, “Peptide conjugates for treating pain” (priority 2012, dated 2017).
